According to patent publication US20200061026A1, “METHODS AND COMPOSITIONS FOR PREVENTING VECTOR-BORNE DISEASE TRANSMISSION” (The Scripps Research Institute, priority 2016, published 2020):
Where two headings read alike, the source gives them in different places.

Assays:
hERG channels = hERG channels (Homo sapiens, UniProt Q12809); assay: hERG channel manual patch clamp assay (CHO-K1 cells); format: cell-based
Procedure: Cells: Stable CHO-K1 cells expressing hERG channels (from AVIVA Biosciences) were used in the assay.
Patch Clamp recording: The recordings were performed on conventional patch clamp (Axon Multiclamp 700B, Digidata 1440, pCLAMP 10, Molecular Devices Corporation or HEKA EPC10/Patchmaster system, HEKA Elektronik Corporation) at room temperature, using the whole-cell patch clamp techniques. The composition of external solution was (mM): HEPES 10, NaCl 145, KCl 4, CaCl2 2, MgCl2 1, Glucose 10, pH to 7.4 with 1N NaOH, osmolarity to 290-300 mOsm. Filtered and kept at 4° C. The composition of internal solution was (mM): KOH 31.25, KCl 120, CaCl2 5.374, MgCl2 1.75, EGTA 10, HEPES 10, Na2-ATP 4, pH to 7.2 with 1N KOH, osmolarity to 280-290 mOsm. Filtered and kept at −20° C.
For conventional patch clamp, 35 mm culture dishes or recording chambers containing CHO-hERG cells were placed on the stage of an inverted/upright microscope and continuously perfused with external solutions from a perfusion system (RSC-160 Rapid solution Changer, BioLogic or OctaFlow I, ALA Scientific Instruments Inc).
Test compounds were dissolved in 100% DMSO to make stock solutions for each test concentration, and then diluted into external solutions to achieve final concentration for testing. Final DMSO concentration was not more than 0.3%.
Voltage command protocol: From the holding potential of −80 mV, the voltage was first stepped to 60 mV for 850 ms to open hERG channels. Then the voltage was stepped back down to −50 mV for 1275 ms, causing a “rebound” or tail current, which was measured and collected for data analysis. Finally, the voltage was stepped back to the holding potential (−80 mV). This voltage command protocol was repeated every 15000 msec. This command protocol was performed continuously during the test (vehicle control, test compounds).
Compound effect (% inhibition) was determined by difference in current amplitude before and after the application of test compounds. IC50 values were determined from concentration-response curves that were obtained with Hill fitting.

[1] = Bidirectional permeability in Caco-2 cells; format: in vitro ADME, human; details: for Papp A→B at 2 h, 2 μM / Papp B→A at 2 h, 2 μM: human, Caco-2, pH 7.4
Procedure: The suitability of the compound for oral dosing was evaluated via a Caco-2 permeability assay to predict human intestinal permeability and to investigate drug efflux. Afoxolaner racemate was evaluated for P-glycoprotein (PGP) inhibition in a MDCK permeability assay.
Caco-2 Cells (obtained from ATCC) were seeded onto PET membranes of 96-well Insert Plates for 21-28 days for confluent cell monolayer formation. The integrity of the monolayer was verified by performing Lucifer yellow rejection assay. The quality of the monolayer was also verified by measuring the unidirectional (A→B) permeability of fenoterol/nadolol (low permeability marker), propranolol/metoprolol (high permeability marker) and Bi-directional permeability of Digoxin (a P-glycoprotein substrate marker) in duplicate wells.
Standard assay conditions are as follows: each test compound was tested at 2 μM (DMSO≤1%) with two replicates; bi-directional transport was evaluated (A→B and B→A); incubation was for 2 hours with a single time point; the transport buffer contained HBSS with 10 mM HEPES at pH7.40±0.05; and incubation occurred at 37±1° C., 5% CO2 and relatively saturated humidity. The dosing solution was spiked and mixed with transport buffer and Stop Solution (containing an appropriate internal standard (IS)) to provide the T0 sample. At the end of incubation, sample solutions from both donor and receiver wells were immediately mixed with Stop Solution. All samples, including T0 samples, donor samples, and receiver samples, were analyzed using LC/MS/MS. Concentrations of test compound are expressed as peak area ratio of analytes versus IS without a standard curve.

[2] = Plasma protein binding (equilibrium dialysis), dog; format: in vitro ADME; details: 2 μM
Procedure: Frozen plasma (EDTA-K2 as anticoagulant) pooled from multiple individuals of various species was used as a test matrix. The plasma was purchased from commercial vendors or prepared in house from animals. Warfarin was used as a positive control.
Isoxazoline compounds were spiked into the blank matrix at the final concentration of 2 μM.
A 150 μL aliquot of matrix sample was added to one side of the chamber in a 96-well equilibrium dialyzer plate (HTD dialysis) and an equal volume of dialysis buffer was added to the other side of the chamber. An aliquot of matrix sample was harvested before the incubation and used as T0 samples for recovery calculation. Triplicate incubations were performed.
The dialyzer plate was placed in a humidified incubator and rotated slowly for 4 hours at 37° C. After incubation, samples were taken from the matrix side as well as the buffer side. The plasma sample was matched with equal volume of blank buffer; and buffer samples were matched with equal volume of blank plasma. The matrix-matched samples were quenched with a stop solution containing internal standard.
The samples were analyzed by LC-MS/MS.
Then, % bound fraction at 4 hours (% bound=1−% unbound) and % recovery in incubates at 4 hours were calculated.
The stability of compounds in mouse (ms), rat (r), dog (d), cynomolgus monkey (cy), and human (hu) plasma is shown in Table 10 by the percentages of compounds remaining at two hours.

[3] = Lipophilicity, ALogD at pH 7.4; format: physicochemical
CYP 3A4 = biological target: T1, CYP 3A4 (Homo sapiens, UniProt P08684); assay: Reversible CYP inhibition in human liver microsomes, CYP 3A4; format: in vitro ADME
T1 construct: individual CYPs in a pool of human liver microsomes; from tissue; host or cells: pooled human liver microsomes
Procedure: (§1) Reversible inhibition of cytochrome P450s (CYPs) in human liver microsomes was tested using prototypical, isoform-selective activity assays for individual CYPs in a pool of human liver microsomes (i.e., testosterone for CYP 3A4, phenacetin for CYP 1A2, bufuralol for CYP 2D6, S-mephenytoin for CYP 2C19, and diclofenac for CYP 2C9). The assay provides 8-point IC50 determinations in the range of 0.010 to 50 μM drug concentrations for major isoforms of CYP450.

[4] = Hepatocyte stability assay, cynomolgus monkey; format: in vitro ADME; details: hepatocytes
Procedure: Example 7. In Vitro Metabolic Stability of Isoxazoline Compounds in cd-1 Mouse, sd Rat, Beagle Dog, Cynomolgus Monkey and Human Cryopreserved Hepatocytes
Isoxazoline compounds (at 1 μM) were incubated with cryopreserved hepatocytes (0.5×10^6 cells per mL) in duplicates (n=2) at 37° C. using 96-well plate format.
Time points were 0, 15, 30, 60 and 90 minutes in separate plates and medium control samples without cells at 0 and 90 minutes were also incubated. At each time point the reaction was stopped by adding organic solution containing internal standard (IS).
Positive controls 7-ethoxycoumarin and 7-hydroxycoumarin were included in parallel.
The samples were analyzed by LC-MS/MS. Disappearance of the test compound was assessed based on peak area ratios of analyte/IS (no standard curve).
Intrinsic clearance and t½ values were then calculated.

CYP 2C19 = biological target: T2, CYP 2C19 (Homo sapiens, UniProt P33261); assay: Reversible CYP inhibition in human liver microsomes, CYP 2C19; format: in vitro ADME; details: S-mephenytoin, read-out: Cyp microsome IC50, 2C19
T2 construct: individual CYPs in a pool of human liver microsomes; from tissue; host or cells: pooled human liver microsomes
Procedure: as §1

[5] = B→A, 2 μM, 2 hours, read-out: Caco2 B-A
[6] = cynomolgus monkey (cy), 1 μM, read-out: Hepatocyte stability (t½)

T1 sequence (P08684 whole entry): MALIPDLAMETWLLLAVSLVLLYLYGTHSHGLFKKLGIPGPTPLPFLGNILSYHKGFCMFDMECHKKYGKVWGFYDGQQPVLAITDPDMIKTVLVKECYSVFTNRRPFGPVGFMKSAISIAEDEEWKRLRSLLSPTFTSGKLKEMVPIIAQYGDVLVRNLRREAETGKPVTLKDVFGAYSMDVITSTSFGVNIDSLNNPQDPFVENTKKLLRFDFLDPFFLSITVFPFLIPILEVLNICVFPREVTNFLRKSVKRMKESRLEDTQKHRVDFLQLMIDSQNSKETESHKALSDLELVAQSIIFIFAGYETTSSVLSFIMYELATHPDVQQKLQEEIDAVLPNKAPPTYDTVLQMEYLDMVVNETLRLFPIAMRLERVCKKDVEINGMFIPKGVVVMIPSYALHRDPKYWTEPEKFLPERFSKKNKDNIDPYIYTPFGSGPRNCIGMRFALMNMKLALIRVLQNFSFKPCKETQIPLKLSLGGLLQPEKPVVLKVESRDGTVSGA
Chain of hERG channels (Q12809 whole entry): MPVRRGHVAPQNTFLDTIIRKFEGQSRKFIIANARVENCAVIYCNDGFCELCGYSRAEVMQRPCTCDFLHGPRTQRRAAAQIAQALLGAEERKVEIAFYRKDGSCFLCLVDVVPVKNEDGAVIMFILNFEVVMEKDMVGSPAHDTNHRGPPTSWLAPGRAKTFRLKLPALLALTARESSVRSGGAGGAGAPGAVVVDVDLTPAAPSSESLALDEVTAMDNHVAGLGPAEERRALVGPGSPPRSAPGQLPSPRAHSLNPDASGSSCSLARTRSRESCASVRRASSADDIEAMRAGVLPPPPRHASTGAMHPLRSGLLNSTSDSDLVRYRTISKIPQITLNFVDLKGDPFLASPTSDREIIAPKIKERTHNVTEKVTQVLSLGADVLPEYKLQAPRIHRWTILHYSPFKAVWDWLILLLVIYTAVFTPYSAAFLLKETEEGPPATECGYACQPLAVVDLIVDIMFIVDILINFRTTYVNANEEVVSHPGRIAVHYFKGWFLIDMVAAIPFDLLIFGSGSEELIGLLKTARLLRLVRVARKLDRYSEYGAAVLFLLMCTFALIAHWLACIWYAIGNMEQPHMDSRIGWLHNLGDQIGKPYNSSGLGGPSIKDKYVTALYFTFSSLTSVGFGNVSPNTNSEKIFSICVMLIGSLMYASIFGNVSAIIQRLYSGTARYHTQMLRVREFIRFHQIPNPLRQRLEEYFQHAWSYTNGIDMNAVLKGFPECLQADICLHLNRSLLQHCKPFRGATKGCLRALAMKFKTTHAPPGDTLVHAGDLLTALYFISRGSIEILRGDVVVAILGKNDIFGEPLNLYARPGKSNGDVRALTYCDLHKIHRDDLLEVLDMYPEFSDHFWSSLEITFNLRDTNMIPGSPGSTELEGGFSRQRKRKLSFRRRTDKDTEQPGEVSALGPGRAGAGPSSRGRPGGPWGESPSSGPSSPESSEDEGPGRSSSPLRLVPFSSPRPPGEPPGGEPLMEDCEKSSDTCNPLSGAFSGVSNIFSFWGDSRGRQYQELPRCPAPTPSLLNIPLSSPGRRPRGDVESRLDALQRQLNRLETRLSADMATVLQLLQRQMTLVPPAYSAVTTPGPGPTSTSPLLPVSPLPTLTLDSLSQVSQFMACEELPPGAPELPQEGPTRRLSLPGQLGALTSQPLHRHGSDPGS
T2 sequence (P33261 whole entry): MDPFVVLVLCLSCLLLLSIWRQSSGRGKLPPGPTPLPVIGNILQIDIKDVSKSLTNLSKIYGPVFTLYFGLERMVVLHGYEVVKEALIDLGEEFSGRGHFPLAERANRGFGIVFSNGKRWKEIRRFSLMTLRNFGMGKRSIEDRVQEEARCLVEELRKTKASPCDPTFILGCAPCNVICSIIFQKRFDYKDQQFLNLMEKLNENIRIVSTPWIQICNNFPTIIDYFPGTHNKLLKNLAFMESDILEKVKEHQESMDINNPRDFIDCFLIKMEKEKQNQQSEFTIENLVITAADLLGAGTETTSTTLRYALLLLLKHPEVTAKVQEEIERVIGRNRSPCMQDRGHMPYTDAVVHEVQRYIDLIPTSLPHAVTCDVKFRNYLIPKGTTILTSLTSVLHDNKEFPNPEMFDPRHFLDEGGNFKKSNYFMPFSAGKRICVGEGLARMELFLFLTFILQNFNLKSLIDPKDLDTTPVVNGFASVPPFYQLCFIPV

Compound	IC50 (hERG channels)	Papp A→B at 2 h, 2 μM ([1]; A→B, 2 μM, 2 hours, read-out: Caco2 A-B)	Papp B→A at 2 h, 2 μM [1, 5]	Plasma protein % binding ([2]; dog (d), 4 hours)	ALogD (pH 7.4) [3]	IC50 (CYP 3A4)	half-life at 1 μM [4, 6]	IC50 (CYP 2C19)	Papp A→B at 2 h, 2 μM [1]	Papp B→A at 2 h, 2 μM [1]	Plasma protein % binding ([2]; dog, 4 h)	half-life at 1 μM ([4]; cynomolgus monkey)	hERG inhibition (manual patch) (hERG channels; at 5 uM)	Caco2 A-B ([1]; A→B, 2 μM, 2 hours)
O=C(CNC(=O)c1ccc(C2=NO[C@@](c3cc(Cl)cc(C(F)(F)F)c3)(C(F)(F)F)C2)c2ccccc12)NCC(F)(F)F [(S)-afoxolaner]	> 30 µM	< 0.2 ×10⁻⁶ cm/s	0.7 ×10⁻⁶ cm/s	99.5 (d) %	6.1	> 50 µM	50 min	1.1 µM						
O=C(CNC(=O)c1ccc(C2=NO[C@@](c3cc(Cl)cc(Cl)c3)(C(F)(F)F)C2)c2ccccc12)NCC(F)(F)F [(S)-4-(5-(3,5-dichlorophenyl)-5-(trifluoromethyl)-4,5-dihydroisoxazol-3-yl)-N-(2-oxo-2-((2,2,2-trifluoroethyl)amino)ethyl)-1-naphthamide]	19.9 µM				5.8	> 50 µM		0.6 µM	< 0.29 ×10⁻⁶ cm/s	0.56 ×10⁻⁶ cm/s	>99.9% (ms, r, d, hu)	42 min		
O=C(CNC(=O)c1ccc(C2=NO[C@](c3cc(Cl)cc(C(F)(F)F)c3)(C(F)(F)F)C2)c2ccccc12)NCC(F)(F)F (racemic) [Afoxolaner, afoxolaner]			0.24 ×10⁻⁶ cm/s	>99.9 (d, hu) %	6.1	> 50 µM	> 217 min	3.1 µM					0.9% ± 2.5%	<0.0003/ 10^−6 cm/sec
